Key:
[1] = target: T1, recombinant human TYRO3 (Homo sapiens, UniProt Q06418); test: Biochemical potency, HTRF KinEASE-TK kinase assay; conditions: 1 nM TYRO3, 700 μM ATP
T1 construct: purchased Invitrogen
T1 sequence (Q06418 41-890): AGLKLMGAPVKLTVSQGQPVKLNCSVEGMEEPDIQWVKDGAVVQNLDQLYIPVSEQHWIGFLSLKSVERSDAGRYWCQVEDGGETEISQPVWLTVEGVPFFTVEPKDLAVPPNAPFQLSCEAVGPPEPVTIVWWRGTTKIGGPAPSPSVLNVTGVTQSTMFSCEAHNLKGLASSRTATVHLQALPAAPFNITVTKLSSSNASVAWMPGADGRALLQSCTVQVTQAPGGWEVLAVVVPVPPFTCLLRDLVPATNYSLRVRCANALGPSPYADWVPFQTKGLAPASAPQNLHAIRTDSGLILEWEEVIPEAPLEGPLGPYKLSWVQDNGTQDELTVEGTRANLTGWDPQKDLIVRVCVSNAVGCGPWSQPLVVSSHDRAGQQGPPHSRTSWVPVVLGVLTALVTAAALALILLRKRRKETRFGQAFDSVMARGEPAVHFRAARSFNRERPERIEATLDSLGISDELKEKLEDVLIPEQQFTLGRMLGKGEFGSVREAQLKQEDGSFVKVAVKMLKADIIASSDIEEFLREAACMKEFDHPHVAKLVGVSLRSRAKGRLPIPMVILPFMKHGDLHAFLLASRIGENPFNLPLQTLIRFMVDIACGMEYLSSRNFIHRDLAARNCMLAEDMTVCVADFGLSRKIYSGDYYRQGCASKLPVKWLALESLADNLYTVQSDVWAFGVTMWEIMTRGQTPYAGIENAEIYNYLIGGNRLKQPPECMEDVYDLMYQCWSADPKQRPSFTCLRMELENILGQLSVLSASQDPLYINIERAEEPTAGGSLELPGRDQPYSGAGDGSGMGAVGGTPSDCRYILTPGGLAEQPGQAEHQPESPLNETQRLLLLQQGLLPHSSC
Method in brief: (§1)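 Enzyme (AXL 5 nM; TYRO3 or MER 1 nM final) was preincubated with compound for 1 h at RT, then reacted for 2 h at RT with 800 nM biotinylated TK substrate and 700 µM ATP in HEPES pH 7.4, MgCl2, DTT, BSA, 1% DMSO. Percent activity came from the HTRF 665/620 ratio.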

[2] = target: T2, recombinant human MER (Homo sapiens, UniProt Q12866); test: Biochemical potency, HTRF KinEASE-TK kinase assay; conditions: 1 nM MER, 700 μM ATP
T2 construct: purchased Invitrogen
T2 sequence (Q12866 21-999): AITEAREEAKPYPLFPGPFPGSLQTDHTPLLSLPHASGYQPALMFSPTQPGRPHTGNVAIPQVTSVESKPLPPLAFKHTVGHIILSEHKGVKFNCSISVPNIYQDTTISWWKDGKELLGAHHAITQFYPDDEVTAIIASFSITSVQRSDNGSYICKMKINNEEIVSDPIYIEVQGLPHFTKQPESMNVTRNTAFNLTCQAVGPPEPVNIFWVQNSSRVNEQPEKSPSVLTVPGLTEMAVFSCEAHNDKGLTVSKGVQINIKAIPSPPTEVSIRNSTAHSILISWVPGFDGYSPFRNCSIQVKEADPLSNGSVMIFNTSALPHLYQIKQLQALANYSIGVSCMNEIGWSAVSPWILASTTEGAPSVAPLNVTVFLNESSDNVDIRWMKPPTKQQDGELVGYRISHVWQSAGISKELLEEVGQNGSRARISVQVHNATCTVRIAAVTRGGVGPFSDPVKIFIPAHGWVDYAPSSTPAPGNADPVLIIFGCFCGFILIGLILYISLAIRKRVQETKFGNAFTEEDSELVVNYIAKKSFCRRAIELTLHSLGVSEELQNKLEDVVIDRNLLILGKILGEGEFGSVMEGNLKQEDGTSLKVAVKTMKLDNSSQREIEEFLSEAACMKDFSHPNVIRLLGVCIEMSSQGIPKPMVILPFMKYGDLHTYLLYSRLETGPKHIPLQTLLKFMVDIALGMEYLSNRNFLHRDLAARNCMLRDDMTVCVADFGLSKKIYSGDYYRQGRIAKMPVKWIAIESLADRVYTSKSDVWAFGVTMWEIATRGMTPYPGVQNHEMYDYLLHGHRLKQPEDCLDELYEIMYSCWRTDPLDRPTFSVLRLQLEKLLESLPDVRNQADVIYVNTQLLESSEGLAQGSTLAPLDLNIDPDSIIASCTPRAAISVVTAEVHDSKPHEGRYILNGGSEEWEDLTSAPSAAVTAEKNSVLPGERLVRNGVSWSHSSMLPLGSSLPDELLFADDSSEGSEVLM
Method in brief: as §1

Row | Structure (SMILES) | IC50 [1] | IC50 [2]
1 | Cc1cccnc1-c1ccc(-c2c[nH]c3ncc(-c4ccc5c(c4)CC[C@@H](N4CCCC4)CC5)cc23)cc1 [Example 173, 3-Methyl-2-(4-{5-[(7S)-7-(pyrrolidin-1-yl)-6,7,8,9-tetrahydro-5H-benzo[7]annulen-2-yl]-1H-pyrrolo[2,3-b]pyridin-3-yl}phenyl)pyridine] | < 100 nM | < 100 nM
2 | Cc1ccc(C)c(-c2ccc(-c3n[nH]c4ncc(-c5ccc6c(c5)CC[C@@H](N5C7COCC5C7)CC6)cc34)cc2)n1 [Example 120, 6-[(7S)-2-{3-[4-(3,6-Dimethylpyridin-2-yl)phenyl]-1H-pyrazolo[3,4-b]pyridin-5-yl}-6,7,8,9-tetrahydro-5H-benzo[7]annulen-7-yl]-3-oxa-6-azabicyclo[3.1.1]heptane] | < 100 nM | 100 to 1000 nM
3 | Cc1nc(-c2ccc(-c3n[nH]c4ncc(-c5ccc6c(c5)CC[C@@H](N5C7COCC5C7)CC6)cc34)cc2)n(C)n1 [Example 23, 6-[(7S)-2-{3-[4-(1,3-Dimethyl-1H-1,2,4-triazol-5-yl)phenyl]-1H-pyrazolo[3,4-b]pyridin-5-yl}-6,7,8,9-tetrahydro-5H-benzo[7]annulen-7-yl]-3-oxa-6-azabicyclo[3.1.1]heptane] | < 100 nM | 100 to 1000 nM
4 | CS(=O)(=O)c1cccnc1-c1ccc(-c2n[nH]c3ncc(-c4ccc5c(c4)CC[C@@H](N4C6COCC4C6)CC5)cc23)cc1 [Example 101, 6-[(7S)-2-{3-[4-(3-Methanesulfonylpyridin-2-yl)phenyl]-1H-pyrazolo[3,4-b]pyridin-5-yl}-6,7,8,9-tetrahydro-5H-benzo[7]annulen-7-yl]-3-oxa-6-azabicyclo[3.1.1]heptane] | < 100 nM | 100 to 1000 nM
5 | OC1(c2cccnc2-c2ccc(-c3c[nH]c4ncc(-c5ccc6c(c5)CC[C@@H](N5C7COCC5C7)CC6)cc34)cc2)CCC1 [Example 22, 1-[2-[4-[5-[(7S)-7-(3-Oxa-6-azabicyclo[3.1.1]heptan-6-yl)-6,7,8,9-tetrahydro-5H-benzo[7]annulen-3-yl]-1H-pyrrolo[2,3-b]pyridin-3-yl]phenyl]pyridin-3-yl]cyclobutan-1-ol] | < 100 nM | < 100 nM
6 | Cc1cccnc1-c1ccc(-c2c[nH]c3ncc(-c4ccc5c(c4)CC[C@@H](N[C@H]4CCCOC4)CC5)cc23)cc1 [Example 186, (3S)—N-[(7S)-2-{3-[4-(3-Methylpyridin-2-yl)phenyl]-1H-pyrrolo[2,3-b]pyridin-5-yl}-6,7,8,9-tetrahydro-5H-benzo[7]annulen-7-yl]oxan-3-amine] | < 100 nM | < 100 nM
